Data published in US12448382B2, “Heterocyclic compounds for mediating tyrosine kinase 2 activity” (GUANGZHOU INNOCARE PHARMA TECH CO., LTD., priority 2019, dated 2025).
Where two headings read alike, the source gives them in different places.

How the values were obtained:
[1] = biological target: T1, human recombinant TYK2 protein (Homo sapiens, UniProt P29597); assay: TYK2 Inhibition Assay (HTRF kinase assay); format: biochemical; settings: human recombinant TYK2, 11.25 μM ATP substrate solution
T1 construct: purchased Carna Biosciences 08-147
T1 sequence (P29597 871-1187 limits assumed): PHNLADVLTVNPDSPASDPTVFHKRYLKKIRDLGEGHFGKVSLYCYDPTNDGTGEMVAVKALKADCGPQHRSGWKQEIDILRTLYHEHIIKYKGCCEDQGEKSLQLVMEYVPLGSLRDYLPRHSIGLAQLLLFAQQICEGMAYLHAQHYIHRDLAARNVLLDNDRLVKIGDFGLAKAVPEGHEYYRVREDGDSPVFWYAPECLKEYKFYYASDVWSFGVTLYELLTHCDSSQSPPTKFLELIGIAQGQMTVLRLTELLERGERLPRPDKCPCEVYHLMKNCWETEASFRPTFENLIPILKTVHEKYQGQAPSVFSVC
Method: The effect of the compounds of the present invention on the enzymatic activity of TYK2 was assessed by detecting the substrate phosphorylation level in a kinase reaction using the HTRF kinase assay detection kit (Cisbio, Cat. No. 62TK0PEC).
(§1) The experimental method is generally described below:
A reaction buffer contained the following components: an enzyme reaction buffer (1×), 5 mM MgCl2 mM DTT and 0.01% Brij35 from the kit. A TYK2 kinase solution contained human recombinant TYK2 protein (Carna Biosciences, 08-147) diluted in the reaction buffer to 0.25 ng/μL. A substrate reaction solution contained 11.25 μM ATP and 0.5 μM of a biotinylated tyrosine kinase substrate from the kit in the reaction buffer. A detection solution contained 0.1 ng/μL Eu^3+-labeled cage antibody (Cisbio, 61T66KLB) and 25 nM streptavidin-1 added XL665 (Cisbio, 610SAXLB) in the reaction buffer.
(§2) The test compound was dissolved in DMSO to 10 μM, followed by a serial 4-fold dilution with DMSO to a minimum concentration of 0.061 nM. Each concentration was further diluted 40-fold with the reaction buffer.
(§3) To a 384-well assay plate (Corning, 3674) were added 4 μL of compound solution and 2 μL of TYK2 kinase solution. The mixture was mixed and incubated at room temperature for 15 minutes, and then added with 4 μL of the substrate reaction solution. After further incubation at room temperature for 40 minutes, the reaction mixture was added with an equal volume of 10 μL detection solution and allowed to stand at room temperature for 30 minutes. An Envision plate reader (Perkin Elmer) was then used to measure the progress of the reaction at 620 nm and 665 nm. The ratio of absorbances at 665 nm and 620 nm was positively correlated with the degree of substrate phosphorylation, therefore the activity of TYK2 kinase was detected. In the experiment, the group without TYK2 kinase protein was treated as the 100% inhibition group, and the group with TYK2 kinase protein but not the test compound was treated as the 0% inhibition group. The percentage of inhibition on TYK2 kinase activity by the test, compound was calculated using the following formula: Percentage of inhibition=100−100*(ratiocompound−ratio100% inhibition)/(ratio0% inhibition−ratio100% inhibition)
The IC50 value of the test compound was calculated from 8 concentration points using the XLfit software (ID Business Solutions Ltd., UK) by the following formula: Y=Bottom+(Top−Bottom)/(1+10^((log IC50−X)slope factor))
(§4) Where Y was the percentage of inhibition, X was the logarithm of the concentration of the test compound, Bottom was the bottom plateau value of the S-shaped curve, Top was the top plateau value of the S-shaped curve, and slope factor was the slope coefficient of the curve.

[2] = system: IL-12-induced IFN-γ secretion in NK92 cells; assay: Inhibition of IL-12-induced IFN-γ Secretion in NK92 Cells (ELISA); format: cell-based, human; settings: 24 hours incubation, 8 concentration points, read-out: IC50 (NK92_IL12/IFNγ)
Method: Inhibition of IL-12-induced IFN-γ Secretion in NK92 Cells
The effect of the compounds of the present invention on IFN-γ secretion induced by IL-12 in NK92 cells was evaluated by an enzyme-linked immunosorbent assay (ELISA).
IL-12 receptor is mainly expressed in activated T-cells, NK cells (NK92 is a NK cell line), DC cells, and B-cells. When binding to IL-12, it activates JAK2/TYK2 signal transduction pathway within NK cells and T lymphocytes, thereby inducing secretion of IFN-γ.
as §1
The test compound was dissolved in DMSO to 2.5 mM, followed by a serial 4-fold dilution with DMSO to a minimum concentration of […]. Each concentration was further diluted 50-fold with an FBS-free MEMα medium (Gibco, 12561-056).
NK92 cells (Nanjing Cobioer, CBP60980) were cultured in a complete MEMα medium containing 12.5% FBS (Ausbian, VS500T), 12.5% horse serum (Gibco, 16050-122), 0.02 mM folic acid (Sigma, F8758), 0.2 mM inositol (Sigma, 17850), 0.55 mM β-mercaptoethanol (Gibco, 21985-023), 200 U/mL IL-2 (R&D Systems, 202-1L), and 100 U/mL penicillin (Thermofisher, 15140122). When covering 80-90% of the culture container surface, the cells were dispersed and plated on a 96-well plate (Thermofisher, 167425) with 100,000 cells per well (80 μL of the complete MEMα medium without IL-2). The 96-well plate was then incubated overnight in a 37° C./5% CO2 incubator.
After overnight incubation, 10 μL of the test compound and 10 μL of 50 ng/mL IL-12 (R & D Systems, 219-1L) were added to each well and mix gently, and the 96-well plate was incubated in the 37° C./5% CO2 incubator for additional 24 hours. The plate as centrifuged at 800 rpm for 10 minutes at room temperature and 50 μL of the supernatant from each well was transferred to another 96-well plate (Sigma, CLS3695) coated with anti-IFN-γ antibody. The amount of IFN-γ secretion was detected following the instruction from the Human IFN-γ DuoSet ELISA kit (R & D Systems, DY285B). In the experiment, the group with IL-12 and the test compound being replaced with the MEMα medium was the non-stimulated control group (100% inhibition), and the group with IL-12 and 0.2% DMSO was the stimulated group (0% inhibition). The percentage of inhibition on IL-12 induced IFN-γ secretion in NK-92 cells by the test compound was calculated using the following formula: Percentage of inhibition=100−100*(signalcompound−signalnon-stimulated control)/(signalstimulated control−signalnon-stimulated control)
The IC50 value of the test compound was calculated front 8 concentration points using the XLfit software (ID Business Solutions Ltd., UK) by the following formula: Y=Bottom+(Top−Bottom)/(1+10^((log IC50−X)×slope factor))
as §4

[3] = biological target: T2, human recombinant JAK2 protein (Homo sapiens, UniProt O60674); assay: JAK2 Inhibition Assay (HTRF kinase assay); format: biochemical; settings: human recombinant JAK2, 2.5 μM ATP substrate solution
T2 construct: purchased Carna Biosciences 08-045
Method: The effect of the compounds of the present invention on the enzymatic activity of JAK2 was assessed by detecting the substrate phosphorylation level in a kinase reaction using the HTRF kinase assay detection kit (Cisbio, Cat. No. 62TK0PEC).
as §1
A reaction buffer contained the following components: an enzyme reaction buffer (1×), 5 mM MgCl2, 1 mM DTT and 0.01% Brij35 from the kit. A JAK2 kinase solution contained a human recombinant JAK2 protein (Carna Biosciences, 08-045) diluted in the reaction buffer to 0.15 ng/μL. A substrate reaction solution contained 2.5 μM ATP and 0.25 μM of a biotinylated tyrosine kinase substrate from the kit in the reaction buffer. A detection solution contained 0.1 ng/μL Eu^3+-labeled cage antibody (Cisbio, 61T66KLB) and 12.5 nM streptavidin-labeled XL665 (Cisbio, 610SAXLB) in the reaction buffer.
as §2
as §3, with “JAK2” for “TYK2”, “30” for “40”, “test” for “test,”
The IC50 value of the test compound was calculated from 8 concentration points using the XLfit softwere (ID Business Solutions Ltd., UK) by the following formula: Y=Bottom+(Top−Bottom)/(1+10^((log IC50−X)×slope factor))
Where Y was the percentage of inhibition, X was the logarithm of the concentration of the test compound. Bottom was the bottom plateau value of the S-shaped curve, Top was the top plateau value of the S-shaped curve, and slope factor was the slope coefficient of the curve.

T2 sequence (O60674 826-1132 limits assumed): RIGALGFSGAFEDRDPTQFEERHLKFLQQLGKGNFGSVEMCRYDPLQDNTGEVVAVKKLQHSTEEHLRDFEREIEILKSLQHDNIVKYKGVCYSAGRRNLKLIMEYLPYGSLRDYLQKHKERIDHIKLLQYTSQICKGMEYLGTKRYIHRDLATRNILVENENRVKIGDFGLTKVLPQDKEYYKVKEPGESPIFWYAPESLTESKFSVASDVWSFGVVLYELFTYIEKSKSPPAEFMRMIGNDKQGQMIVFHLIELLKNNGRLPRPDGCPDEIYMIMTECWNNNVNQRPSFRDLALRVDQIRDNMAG

Compound | IC50 [1] [nM] | IC50 ([2]; Homo sapiens) [nM] | IC50 [3] [nM] | IC50 [2] [nM]
3-((3aR,6aS)-3a,6a-dimethyl-5-5-methyl-2-((1-methyl-1H-pyrazol-4-yl)amino)pyrimidin-4-yl)hexahydropyrrolo[3,4-c]pyrrol-2(1H)-yl)-3-oxopropanenitrile [Compound 57] | 2.3 |  | 3.2 | 5240
Cn1cc(Nc2ncc(Cl)c(N3C[C@]4(C)CN(c5ccncn5)C[C@]4(C)C3)n2)cn1 [Compound 25, 5-chloro-4-((3aR,6aS)-3a,6a-dimethyl-5-(pyrimidin-4-yl)hexahydropyrrolo[3,4-c]pyrrol-2(1H)-yl)-N-(1-methyl-1H-pyrazol-4-yl)pyrimidin-2-amine] | 0.3 | 399 | 0.9 | 
C[C@@H](O)Cn1cc(Nc2ncc(Cl)c(N3C[C@]4(C)CN(C(=O)C5CC5)C[C@]4(C)C3)n2)cn1 [Compound 17, ((3aR,6aS)-5-(5-chloro-2-((1-((R)-2-hydroxypropyl)-1H-pyrazol-4-yl)amino)pyrimidin-4-yl)-3a,6a-dimethylhexahydropyrrolo[3,4-c]pyrrol-2(1H)-yl)(cyclopropyl)methanone] | 1.6 | 1050 | 3.2 | 
Cn1cc(Nc2ncc(Cl)c(N3C[C@]4(C)CN(C(=O)CC#N)C[C@]4(C)C3)n2)cn1 [Compound 20, 3-((3aR,6aS)-5-(5-chloro-2-((1-methyl-1H-pyrazol-4-yl)amino)pyrimidin-4-yl)-3a,6a-dimethylhexahydropyrrolo[3,4-c]pyrrol-2(1H)-yl)-3-oxopropanenittile] | 0.5 | 233 | 1.2 | 

The remaining lines, values ahead:

IC50 [1] [nM] | IC50 ([2]; Homo sapiens) [nM] | IC50 [3] [nM] | IC50 [2] [nM] | Compound
19 | 4090 | 16 |  | Cc1ncc(CN2C[C@@]3(C)CN(c4nc(Nc5cnn(C)c5)ncc4Cl)C[C@@]3(C)C2)o1 [Compound 80, 5-chloro-4-((3aR,6aS)-3a,6a-dimethyl-5-((2-methyloxazol-5-yl)methyl)hexahydropyrrolo[3,4-c]pyrrol-2(1H)-yl)-N-(1-methyl-1H-pyrazol-4-yl)pyrimidin-2-amine]
1.3 | 635 | 1.7 |  | CCS(=O)(=O)N1C[C@]2(C)CN(c3nc(Nc4cnn(C)c4)ncc3Cl)C[C@]2(C)C1 [Compound 41, 5-chloro-4-((3aR,6aS)-5-(ethylsulfonyl)-3a,6a-dimethylhexahydropyrrolo[3,4-c]pyrrol-2(1H)-yl)-N-(1-methyl-1H-pyrazol-4-yl)pyrimidin-2-amine]
2.2 | 1380 | 5.9 |  | Cc1cnc(Nc2cnn(C)c2)nc1N1C[C@]2(C)CN(C(=O)CC(F)(F)F)C[C@]2(C)C1 [Compound 60, 1-((3aR.,6aS)-3a,6a-dimethyl-5-(5-methyl-2-((1-methyl-1H-pyrazol-4-yl)amino)pyrimidin-4-yl)hexahydropyrrolo[3,4-c]pyrrol-2(1H)-yl)-3,3,3-trifluoropropan-1-one]
5 | 2390 | 5.1 |  | CN1CCN(C(=O)c2ccc(Nc3ncc(Cl)c(N4C[C@]5(C)CN(C(=O)C6CC6)C[C@]5(C)C4)n3)cn2)CC1 [Compound 59, ((3aR,6aS)-5-(5-chloro-2-((6-(4-rnethylpiperazine-1-carbonyl)pyridin-3-yl)amino)pyrimidin-4-yl)-3a,6a-dimethylhexahydropyrrolo[3,4-c]pyrrol-2(1H)-yl)(cyclopropyl)methanone]
16 | 847 | 15 |  | Cn1cc(Nc2ncc(Cl)c(N3C[C@H]4CN(C(=O)[C@@H]5CC5(F)F)C[C@H]4C3)n2)cn1 [Compound 27, ((3aR,6aS)-5-(5-chloro-2-((1-methyl-1H-pyrazol-4-yl)amino)pyrimidin-4-yl)hexahydropyrrolo[3,4-c]pyrrol-2(1H)-yl)((S)-2,2-difluorocyclopropyl)methanone]
